Experiment [1] deals with KATO-III cells. Description: Observation with confocal microscope, KATO-III. The note with it: FDG 20 μM, ex 488 nm, detection 500-600 nm. Format: cell-based, human. The protocol: (§1) Fluorescence imaging was performed using a confocal microscope LSM710 (Carl Zeiss AG). The excitation light used was at 488 nm (detection wavelength: 500-600 nm) and 633 nm (detection wavelength: 647-759 nm).
(§2) The cells were seeded in a 35 mm micro-Dish (μ-Dish 35 mm, high, ibidi, Germany) and cultured for 24 hours, followed by washing with DMEM (for SUIT-2 cells, NIH3T3 cells, HUVEC cells) or RPMI-1640 (for KATO-3 cells) containing no phenol red and no FBS. A dye and Aldefluor™ (StemCell Technologies, Inc., Canada) or FDG (Sigma-Aldrich, USA) were dissolved in DMSO and diluted in the medium. The cells were treated with 2 mL of the medium containing the dye and Aldefluor™ or FDG and cultured in air containing 5% CO2 at 37° C. for one hour, followed by observation with the confocal microscope. The number of cells seeded was 10×10^5 for KATO-3 cells, and 8×10^5 for the other cell types. The final concentrations of CHO_βgal, Aldefluor™, and FDG were 20 μM, 1 μM, and 20 μM, respectively. The DMSO content was 2%. FIG. 4 and FIG. 5 show the measurement results.

The test system of experiment [2] is SUIT-2 cells. Description: Observation with confocal microscope, SUIT-2. Format: cell-based, human. The note with it: SUIT-2, FDG 20 μM, ex 488 nm, detection 500-600 nm. How it is done: as §1, §2

For `O=C1OC2(c3ccc(O[C@@H]4O[C@H](CO)[C@H](O)[C@H](O)[C@H]4O)cc3Oc3cc(O[C@@H]4O[C@H](CO)[C@H](O)[C@H](O)[C@H]4O)ccc32)c2ccccc21` [FDG, fluorescein di-β-D-galactopyranoside], the emission in cells result in experiment [1] and in experiment [2] was “emission was observed throughout the cells” each time.
